Reference: PMC12696368, “Ancestral Chaperonins Provide the First Structural Glimpse into Early Multimeric Protein Evolution” (Molecular Biology and Evolution, 2025)

Tests used:
Test in all cases: phosphate release (BIOMOL GREEN), […]-60 °C
Type in all cases: biochemical
Settings in all cases: 0.5 mM ATP, 5 mM MgCl2, 150 mM KCl, 50 mM HEPES pH 7.4
[1] = target: T1, ACIII (synthetic construct, UniProt Z9ZN04QL74)
T1 construct: ancestral reconstruction, C-terminal His-tag, expressed in E. coli BL21 (DE3); eight-subunit double rings
T1 sequence (Z9ZN04QL74 1-518): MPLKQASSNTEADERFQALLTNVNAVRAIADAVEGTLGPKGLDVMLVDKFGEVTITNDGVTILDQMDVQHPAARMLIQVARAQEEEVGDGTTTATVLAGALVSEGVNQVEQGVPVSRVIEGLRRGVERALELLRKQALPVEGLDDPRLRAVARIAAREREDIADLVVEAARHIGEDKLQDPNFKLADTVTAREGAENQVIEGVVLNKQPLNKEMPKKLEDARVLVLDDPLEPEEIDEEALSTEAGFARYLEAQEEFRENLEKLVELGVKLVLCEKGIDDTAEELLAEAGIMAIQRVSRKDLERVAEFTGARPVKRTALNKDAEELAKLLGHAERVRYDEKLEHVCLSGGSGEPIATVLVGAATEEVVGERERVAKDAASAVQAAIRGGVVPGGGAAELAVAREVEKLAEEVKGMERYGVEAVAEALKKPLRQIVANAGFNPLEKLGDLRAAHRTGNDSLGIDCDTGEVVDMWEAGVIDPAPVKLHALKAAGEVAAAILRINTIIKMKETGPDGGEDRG

[2] = target: T2, ACI (synthetic construct, UniProt Z9T0T8YL69)
T2 construct: ancestral reconstruction, C-terminal His-tag, expressed in E. coli BL21 (DE3); single heptameric ring

[3] = target: T3, AFCB (synthetic construct, UniProt Z9BU06U866)
T3 construct: ancestral reconstruction, C-terminal His-tag, expressed in E. coli BL21 (DE3); 7-subunit double rings

[4] = target: T4, E. coli GroEL (Escherichia coli, UniProt P0A6F5)
T4 construct: recombinant, expressed and purified as the ancestral proteins (C-terminal His-tag, E. coli BL21 (DE3)); no GroES; double ring of two seven-subunit rings
T4 sequence (P0A6F5 2-548): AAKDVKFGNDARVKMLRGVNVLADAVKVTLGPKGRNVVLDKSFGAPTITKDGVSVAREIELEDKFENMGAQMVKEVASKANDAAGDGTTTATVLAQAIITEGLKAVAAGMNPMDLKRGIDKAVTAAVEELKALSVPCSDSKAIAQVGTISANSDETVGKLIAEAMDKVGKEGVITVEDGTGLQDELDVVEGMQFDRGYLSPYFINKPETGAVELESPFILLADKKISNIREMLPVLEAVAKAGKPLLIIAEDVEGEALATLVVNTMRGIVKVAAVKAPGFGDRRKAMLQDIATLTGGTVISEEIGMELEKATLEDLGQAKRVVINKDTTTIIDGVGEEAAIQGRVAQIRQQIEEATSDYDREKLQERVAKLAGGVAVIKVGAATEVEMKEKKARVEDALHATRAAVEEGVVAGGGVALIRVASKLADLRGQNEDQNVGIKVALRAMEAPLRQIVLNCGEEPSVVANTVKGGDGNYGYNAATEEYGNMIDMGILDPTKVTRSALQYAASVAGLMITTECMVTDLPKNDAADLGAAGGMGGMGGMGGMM

Nc1ncnc2c1ncn2[C@@H]1O[C@H](COP(=O)(O)OP(=O)(O)OP(=O)(O)O)[C@@H](O)[C@H]1O [ATP]
phosphate release (BIOMOL GREEN), 30-60 °C [1]: E. coli GroEL, ACI and ACIII exhibited similar hydrolysis patterns | phosphate release (BIOMOL GREEN), 30-60 °C [2]: E. coli GroEL, ACI and ACIII exhibited similar hydrolysis patterns | phosphate release (BIOMOL GREEN), 30-60 °C [3]: showed the highest rate of ATP hydrolysis, followed by AFCB | phosphate release (BIOMOL GREEN), 30-60 °C [4]: E. coli GroEL, ACI and ACIII exhibited similar hydrolysis patterns
